Measured values published in publication PMC7614683, “A small molecule PI3Kα activator for cardioprotection and neuroregeneration” (Nature, 2023).
Like-named read-outs stand apart in the source and are kept apart here.

Assays:
[1] = target: T1, human p110α/p85α (PI3Kα) (Homo sapiens, UniProt P42336); assay: ADP-Glo in vitro lipid kinase assay, PI3Kα; type: biochemical
T1 construct: Full-length human p110α was expressed either in a complex with full-length human p85α (for HTS, biochemistry and HDX-MS); 6xHis tag followed by TEV protease site (N); host or cells: Spodoptera frugiperda Sf9, baculovirus
T1 sequence (P42336 whole entry): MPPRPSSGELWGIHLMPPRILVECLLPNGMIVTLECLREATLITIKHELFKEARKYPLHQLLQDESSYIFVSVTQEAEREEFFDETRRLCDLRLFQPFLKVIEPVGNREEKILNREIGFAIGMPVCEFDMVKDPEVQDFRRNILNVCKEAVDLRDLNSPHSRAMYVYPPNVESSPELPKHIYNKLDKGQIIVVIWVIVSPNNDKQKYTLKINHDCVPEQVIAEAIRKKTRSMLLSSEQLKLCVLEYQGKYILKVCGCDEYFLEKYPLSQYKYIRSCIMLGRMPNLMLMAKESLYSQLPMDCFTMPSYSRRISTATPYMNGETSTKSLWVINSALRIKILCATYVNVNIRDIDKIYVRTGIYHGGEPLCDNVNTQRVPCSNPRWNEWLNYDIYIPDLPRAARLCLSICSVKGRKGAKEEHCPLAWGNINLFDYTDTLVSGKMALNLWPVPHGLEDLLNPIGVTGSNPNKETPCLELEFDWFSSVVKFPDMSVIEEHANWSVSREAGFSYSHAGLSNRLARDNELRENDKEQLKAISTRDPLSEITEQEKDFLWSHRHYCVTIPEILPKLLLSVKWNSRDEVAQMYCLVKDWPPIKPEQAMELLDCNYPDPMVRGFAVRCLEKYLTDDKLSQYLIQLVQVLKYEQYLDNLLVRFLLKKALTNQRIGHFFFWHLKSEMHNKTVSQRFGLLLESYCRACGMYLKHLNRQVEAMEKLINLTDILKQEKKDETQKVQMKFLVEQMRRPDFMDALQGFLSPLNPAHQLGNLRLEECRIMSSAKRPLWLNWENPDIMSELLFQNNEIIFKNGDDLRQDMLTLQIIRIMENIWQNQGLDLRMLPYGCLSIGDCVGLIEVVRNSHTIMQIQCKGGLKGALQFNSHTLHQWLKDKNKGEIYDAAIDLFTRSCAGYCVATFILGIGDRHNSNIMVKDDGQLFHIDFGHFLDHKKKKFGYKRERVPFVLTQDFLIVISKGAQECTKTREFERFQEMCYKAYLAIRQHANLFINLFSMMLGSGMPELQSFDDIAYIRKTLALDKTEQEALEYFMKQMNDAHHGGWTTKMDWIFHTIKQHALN
T1 sequence (P27986 whole entry partner): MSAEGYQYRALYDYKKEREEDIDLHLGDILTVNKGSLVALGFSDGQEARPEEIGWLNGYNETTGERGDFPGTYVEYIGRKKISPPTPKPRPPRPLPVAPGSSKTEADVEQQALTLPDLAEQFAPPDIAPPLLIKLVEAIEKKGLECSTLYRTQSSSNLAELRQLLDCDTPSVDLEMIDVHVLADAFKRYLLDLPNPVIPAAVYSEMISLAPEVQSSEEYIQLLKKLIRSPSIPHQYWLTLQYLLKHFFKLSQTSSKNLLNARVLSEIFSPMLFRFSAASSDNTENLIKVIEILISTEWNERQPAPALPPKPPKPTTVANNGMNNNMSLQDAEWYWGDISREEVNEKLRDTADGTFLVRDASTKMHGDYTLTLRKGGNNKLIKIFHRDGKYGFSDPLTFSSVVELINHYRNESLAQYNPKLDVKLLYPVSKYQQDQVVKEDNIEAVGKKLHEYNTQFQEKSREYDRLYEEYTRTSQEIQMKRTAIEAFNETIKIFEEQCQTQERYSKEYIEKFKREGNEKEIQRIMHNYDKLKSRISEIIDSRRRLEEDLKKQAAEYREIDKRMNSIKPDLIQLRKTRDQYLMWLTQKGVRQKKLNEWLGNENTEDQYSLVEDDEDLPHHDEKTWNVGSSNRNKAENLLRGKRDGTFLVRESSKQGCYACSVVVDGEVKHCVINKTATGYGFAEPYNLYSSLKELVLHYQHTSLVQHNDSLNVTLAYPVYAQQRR
Protocol: Kinase reactions were performed with ADP-Glo kinase assay kit (Promega Corporation). The enzyme, substrate and compounds were diluted in reaction buffer (20 mM HEPES, 50 mM NaCl, 50 mM KCl, 3 mM MgCl2, 1 mM EGTA, 1 mM TCEP, pH 7.4). Final concentrations of PI3Kα and PI3Kδ used were 25 nM and 50 nM for PI3Kβ. Liposomes (5% brain PI(4,5)P2, 20% brain phosphatidylserine, 45% brain phosphatidylethanolamine, 15% brain phosphatidylcholine, 10% cholesterol, 5% sphingomyelin (Avanti Polar Lipids)) were used at a final concentration of 1 mg/ml.
For the HTS, the reaction mixture contained 0.75 μl enzyme, 15 nl compound and/or pY and 0.75 μl of liposome substrate mixed with ATP. […] (GL Biochem, Shanghai Ltd). ATP was used at a final concentration of 500 μM unless otherwise stated. The final DMSO concentration in the assay was 1%. The experiments were performed at room temperature for 3 h using 1536-well white-polystyrene plates (Corning #3729) before addition of 2 μl of ADP-Glo R1 to terminate the reaction. The plate was incubated for 40 min, followed by addition of 4 μl of ADP-Glo R2 and incubated further for 60 min in the dark. Luminescence was read using an EnVision (PerkinElmer) plate reader. All analyses were performed using Genedata Screener.
For re-screening of HTS hits and routine compound profiling, the reaction mixture contained 2 μl PI3K enzyme, 2 μl compound and/or pY and 2 μl of liposome substrate mixed with ATP. ATP was used at a final concentration of 500 μM for PI3Kα and PI3Kβ and at 200 μM for PI3Kδ, unless otherwise stated. The final DMSO concentration in the assay was 1%. The experiments were performed at room temperature for 3 h using 384 white-polystyrene plates (Corning #3824) before addition of 6 μl of ADP-Glo R1 to terminate the reaction. The plate was incubated for 45 min, followed by addition of 12 μl of ADP-Glo R2 and incubated further for 60 min in the dark. Luminescence was read using a Sense (Hidex) plate reader. […] All analyses were performed using GraphPad Prism 7.
For characterisation of the effects of 1938 on in vitro PI3K enzymology, all reactions were performed at room temperature with 384 white-polystyrene plates (Corning #3574). The final DMSO concentration in the assay was between 0.5%-1.8%. The reaction mixture contained 2 μl PI3K enzyme, 2 μl compound and/or pY and 2 μl of liposome substrate mixed with ATP. ATP was used at a final concentration of 200 μM, unless otherwise stated.

[2] = tested on: PI3Kα-KO A549 cells; assay: TIRF microscopy of PIP3 reporter, PI3Kα-KO A549; type: cell-based, human
From the text: Generation of pooled PIK3CA-null A549 cells was outsourced to Synthego Corporation. Briefly, the PIK3CA gene was targeted with synthetic ribonucleoprotein (RNP) complexes including the following single guide RNA (sgRNA) sequence: 5’-[…]-3’. This sequence is located within PIK3CA exon 3 and covers the coding sequence preceding the p110α RAS binding domain, with the Cas9 cut site corresponding to amino acids 156/157 of p110α). In parallel, control cultures were exposed to the Cas9 protein without sgRNA, henceforth referred to as “WT cultures”. Single-cell clones were established from both WT and targeted cultures by limiting dilution, thereby ensuring seeding of maximum 1 cell per well of a 96-well plate. To promote recovery, subcloned cells in 96-wells were cultured in a 1:1 mixture of standard A549 complete medium and conditioned medium. Conditioned medium was prepared from WT cultures 2 days post-passaging by centrifuging the medium at 1000g for 10 min, followed by 0.22 μm PES filtration and storage at 4°C (-80°C for storage exceeding 2 weeks). The medium was replenished every 2-3 days, as gently as possible to prevent cells from dislodging. Once cells reached sub-confluence, they were expanded to 24-well plates and 25 cm[2] flasks, followed by genotyping and cell banking. […]

With `CCN1CCN(c2ccc(Nc3cc(Nc4cccc5c4N(C(C)=O)CC5)ccn3)cc2)CC1` [Compound 1938] the “activation of PI3Kα” value [1] was “activates”, the “PI3Kα activation in combination with pY” value ([1]; 1938 with a saturating concentration of pY) was “synergistic PI3Kα activation” and the “Maximum activity relative to 1938” value ([1]; SI Table 3) was 100%. The EC50 ([1]; SI Table 3, 1938 analogues, read-out: EC50) was 58 ± 28 µM, the EC50 ([1]; read-out: EC50 for PI3Kα (in vitro lipid kinase activity)) was roughly 60 µM and the “plasma membrane PIP3 (biosensor)” value [2] was “not seen”.
